Assay results as given in patent publication US9776979B2, “EBI2 modulators” (Sanford-Burnham Medical Research Institute, priority 2013, dated 2017).

Molecular target: EBI2 (Homo sapiens, UniProt P32249)
Test: Cell-based luminescent assay (EBI2 modulation)
Settings: cell-based luminescence; 7a,25-OHC final assay concentration 80 nM; 60 minutes incubation; read-out: IC50
In short: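 Cells plated overnight at 37° C, then exposed to compound at 4-5 uM final with 80 nM 7a,25-OHC agonist for 60 min at 37° C. Luminescence read after 60 min detection at 25° C in the dark; values normalized to neutral and stimulator controls and plate-pattern corrected.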

Sequence of EBI2 (P32249 whole entry): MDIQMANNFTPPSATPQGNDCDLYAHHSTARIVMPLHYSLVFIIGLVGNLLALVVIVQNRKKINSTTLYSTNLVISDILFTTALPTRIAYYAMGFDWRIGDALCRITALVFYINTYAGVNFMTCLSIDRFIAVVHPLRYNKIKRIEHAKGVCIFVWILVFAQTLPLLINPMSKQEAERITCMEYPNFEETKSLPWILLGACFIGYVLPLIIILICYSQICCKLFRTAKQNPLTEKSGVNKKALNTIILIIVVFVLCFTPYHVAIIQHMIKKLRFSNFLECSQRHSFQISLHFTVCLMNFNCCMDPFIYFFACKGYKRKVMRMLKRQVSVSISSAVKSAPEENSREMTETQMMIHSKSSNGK

Compound	IC50 [nM]
O=C(C#Cc1ccc(Cl)c(Cl)c1)N1CCN(Cc2ccc(F)cc2)CC1 [Compound C284, 3-(3,4-dichlorophenyl)-1-{4-[(4-fluorophenyl)methyl]piperazinyl}prop-2-yn-1-one]	100 to 500
O=C(c1cc2cc(Cl)ccc2[nH]1)N1CCN(C(=O)c2cccnc2Cl)CC1 [Compound C285, 4-[(2-chloro(3-pyridyl))carbonyl]piperazinyl 5-chloroindol-2-yl ketone]	100 to 500
Cn1c(C(=O)N2CCN(C(=O)OC(C)(C)C)CC2)cc2ccccc21 [Compound C286, tert-butyl 4-[(1-methylindol-2-yl)carbonyl]piperazinecarboxylate]	100 to 500
O=C(C#Cc1ccc(F)cc1)N1CCN(C(=O)c2ccc(F)cc2C(F)(F)F)CC1 [Compound C287, 3-(4-fluorophenyl)-1-(4-{[4-fluoro-2-(trifluoromethyl)phenyl]carbonyl}piperazinyl)prop-2-yn-1-one]	100 to 500
O=C(c1cc2cc(Cl)ccc2[nH]1)N1CCN(C(=O)c2nc3ccccc3[nH]2)CC1 [Compound C288, 4-(benzimidazol-2-ylcarbonyl)piperazinyl 5-chloroindol-2-yl ketone]	100 to 500
O=C(c1cc2cc(Cl)ccc2[nH]1)N1CCC(Oc2ccccn2)CC1 [Compound C289, 5-chloroindol-2-yl 4-(2-pyridyloxy)piperidyl ketone]	100 to 500
O=C(c1csc2ccccc12)N1CCN(C(c2ccccc2)c2ccccc2)CC1 [Compound C290, benzo[b]thiophen-3-yl 4-(diphenylmethyl)piperazinyl ketone]	100 to 500
O=C(c1ccc(C(F)(F)F)cc1)N1CCN(C(=O)c2cc3ccc(F)cc3[nH]2)CC1 [Compound C292, 6-fluoroindol-2-yl 4-{[4-(trifluoromethyl)phenyl]carbonyl}piperazinyl ketone]	100 to 500
O=C(c1cc2ccc(Br)cc2[nH]1)N1CCN(Cc2ccc(F)cc2)CC1 [Compound C293, 6-bromoindol-2-yl 4-[(4-fluorophenyl)methyl]piperazinyl ketone]	100 to 500
O=C(C#Cc1cc(F)cc(F)c1)N1CCN(Cc2ccc(Cl)cc2)CC1 [Compound C294, 3-(3,5-difluorophenyl)-1-{4-[(4-chlorophenyl)methyl]piperazinyl}prop-2-yn-1-one]	100 to 500
CCN1CCN(C(=O)c2cc3cc(Cl)ccc3[nH]2)CC1 [Compound C295, 5-chloroindol-2-yl 4-ethylpiperazinyl ketone]	100 to 500
O=C(c1ccc2nc[nH]c2c1)N1CCN(C(c2ccccc2)c2ccccc2)CC1 [Compound C296, benzimidazol-5-yl 4-(diphenylmethyl)piperazinyl ketone]	100 to 500
O=C(C=Cc1ccc2c(c1)OCO2)N1CCN(Cc2ccc(Cl)cc2)CC1 [Compound C297, 3-(2H-benzo[3,4-d]1,3-dioxolan-5-yl)-1-{4-[(4-chlorophenyl)methyl]piperazinyl}prop-2-en-1-one]	100 to 500
O=C(C=Cc1ccc2c(c1)OCO2)N1CCN(Cc2ccc(Br)cc2)CC1 [Compound C298, 3-(2H-benzo[3,4-d]1,3-dioxolan-5-yl)-1-{4-[(4-bromophenyl)methyl]piperazinyl}prop-2-en-1-one]	100 to 500
O=C(c1ccc2nc(C(F)(F)F)[nH]c2c1)N1CCN(C(c2ccccc2)c2ccccc2)CC1 [Compound C299, 4-(diphenylmethyl)piperazinyl 2-(trifluoromethyl)benzimidazol-5-yl ketone]	100 to 500
O=C(/C=C/c1ccc(Cl)cc1F)N1CCN(C(=O)c2cc3cc(Cl)ccc3[nH]2)CC1 [Compound C300, (2E)-3-(4-chloro-2-fluorophenyl)-1-{4-[(5-chloroindol-2-yl)carbonyl]piperazinyl}prop-2-en-1-one]	< 100
O=C(c1ccc2cc3ccccc3cc2c1)N1CCN(C(c2ccccc2)c2ccccc2)CC1 [Compound C301, 2-anthryl 4-(diphenylmethyl)piperazinyl ketone]	< 100
O=C(C#Cc1cccc(Cl)c1)N1CCN(Cc2ccc(F)cc2C(F)(F)F)CC1 [Compound C302, 3-(3-chlorophenyl)-1-(4-{[4-fluoro-2-(trifluoromethyl)phenyl]methyl}piperazinyl)prop-2-yn-1-one]	< 100
COc1ccc2cc(C(=O)N3CCN(C(c4ccccc4)c4ccccc4)CC3)[nH]c2c1 [Compound C304, 4-(diphenylmethyl)piperazinyl 6-methoxyindol-2-yl ketone]	< 100
Nc1ccc(/C=C/C(=O)N2CCN(C(c3ccccc3)c3ccccc3)CC2)cc1 [Compound C305, (2E)-3-(4-aminophenyl)-1-[4-(diphenylmethyl)piperazinyl]prop-2-en-1-one]	< 100
CCOc1ccc(/C=C/C(=O)N2CCN(S(=O)(=O)c3ccc(C(C)=O)cc3)CC2)cc1 [Compound C307, 4-({4-[(2E)-3-(4-ethoxyphenyl)prop-2-enoyl]piperazinyl}sulfonyl)-1-acetylbenzene]	< 100

Compound	IC50 [nM]
O=C(/C=C/c1ccccc1)N1CCN(Cc2cccc3ccccc23)CC1 [Compound C308, (2E)-1-[4-(naphthylmethyl)piperazinyl]-3-phenylprop-2-en-1-one]	< 100
O=C(C#Cc1ccccc1C(F)(F)F)N1CCN(C(=O)c2ccc(Cl)cc2)CC1 [Compound C309, 1-{4-[(4-chlorophenyl)carbonyl]piperazinyl}-3-[2-(trifluoromethyl)phenyl]prop-2-yn-1-one]	< 100
O=C(c1ccc(-c2nnn[nH]2)cc1)N1CCN(C(=O)c2cc3ccc(Br)cc3[nH]2)CC1 [Compound C310, 6-bromoindol-2-yl 4-[(4-(1H-1,2,3,4-tetraazol-5-yl)phenyl)carbonyl]piperazinyl ketone]	< 100
S=C(c1cnc2ccccc2c1)N1CCN(C(c2ccccc2)c2ccccc2)CC1 [Compound C311, [4-(diphenylmethyl)piperazinyl]-3-quinolylmethane-1-thione]	< 100
CCCCN1CCN(C(=O)/C=C/c2ccccc2)CC1 [Compound C312, (2E)-1-(4-butylpiperazinyl)-3-phenylprop-2-en-1-one]	< 100
COc1cccc(S(=O)(=O)N2CCN(C(=O)/C=C/c3ccc(F)cc3)CC2)c1 [Compound C314, (2E)-3-(4-fluorophenyl)-1-{4-[(3-methoxyphenyl)sulfonyl]piperazinyl}prop-2-en-1-one]	< 100
O=C(c1cc2cc(Cl)ccc2[nH]1)N1CCC(Oc2ccc(F)cc2)CC1 [Compound C315, 5-chloroindol-2-yl 4-(4-fluorophenoxy)piperidyl ketone]	< 100
O=C(C#Cc1cccc(Cl)c1)N1CCN(Cc2ccc(Cl)cc2)CC1 [Compound C316, 3-(3-chlorophenyl)-1-{4-[(4-chlorophenyl)methyl]piperazinyl}prop-2-yn-1-one]	< 100
O=C(c1cc2cc(Cl)ccc2[nH]1)N1CCC(Oc2ccc(Cl)cc2)CC1 [Compound C317, 5-chloroindol-2-yl 4-(4-chlorophenoxy)piperidyl ketone]	< 100
O=C(c1cc2cc(Cl)ccc2[nH]1)N1CCN(Cc2ccc(F)cc2)CC1 [Compound C319, 5-chloroindol-2-yl 4-[(4-fluorophenyl)methyl]piperazinyl ketone]	< 100
O=C(/C=C/c1ccccc1Cl)N1CCN(C(c2ccccc2)c2ccccc2)CC1 [Compound C320, (2E)-1-[4-(diphenylmethyl)piperazinyl]-3-(2-chlorophenyl)prop-2-en-1-one]	< 100
Cc1ccc(NC2CCN(C(=O)c3cc4cc(Cl)ccc4[nH]3)CC2)cc1C [Compound C322, 4-[(3,4-dimethylphenyl)amino]piperidyl 5-chloroindol-2-yl ketone]	< 100
O=C(/C=C/c1ccc(F)cc1)N1CCN(S(=O)(=O)Cc2ccccc2)CC1 [Compound C323, (2E)-3-(4-fluorophenyl)-1-{4-[benzylsulfonyl]piperazinyl}prop-2-en-1-one]	< 100
COC(=O)c1ccc(CN2CCN(C(=O)c3cc4cc(Cl)ccc4[nH]3)CC2)cc1 [Compound C324, methyl 4-({4-[(5-chloroindol-2-yl)carbonyl]piperazinyl}methyl)benzoate]	< 100
O=C(c1cc2cc(Cl)ccc2[nH]1)N1CCN(Cc2ccc(-c3ccccc3)cc2)CC1 [Compound C327, 5-chloroindol-2-yl 4-[(4-phenylphenyl)methyl]piperazinyl ketone]	< 100
Cc1ccc2[nH]c(C(=O)N3CCN(Cc4ccc(Cl)c(Cl)c4)CC3)cc2c1 [Compound C328, 4-[(3,4-dichlorophenyl)methyl]piperazinyl 5-methylindol-2-yl ketone]	< 100
O=C(c1ccc(C(F)(F)F)c(F)c1)N1CCN(C(=O)c2cc3ccc(Br)cc3[nH]2)CC1 [Compound C329, 6-bromoindol-2-yl 4-{[3-fluoro-4-(trifluoromethyl)phenyl]carbonyl}piperazinyl ketone]	< 100
O=C(c1cc2cc(Cl)ccc2[nH]1)N1CCN(Cc2ccc(C(F)(F)F)cc2)CC1 [Compound C331, 5-chloroindol-2-yl 4-{[4-(trifluoromethyl)phenyl]methyl}piperazinyl ketone]	< 100
COc1ccc(CN2CCN(C(=O)/C=C/c3ccccc3)CC2)cc1 [Compound C332, (2E)-1-{4-[(4-methoxyphenyl)methyl]piperazinyl}-3-phenylprop-2-en-1-one]	< 100
CC(C)(C)c1ccc(S(=O)(=O)N2CCN(C(=O)/C=C/c3ccc(Cl)c(Cl)c3)CC2)cc1 [Compound C334, (2E)-3-(3,4-dichlorophenyl)-1-(4-{[4-(tert-butyl)phenyl]sulfonyl}piperazinyl)prop-2-en-1-one]	< 100
O=C(C#Cc1ccc(Br)cc1)N1CCN(C(=O)c2ccc(F)cc2C(F)(F)F)CC1 [Compound C336, 3-(4-bromophenyl)-1-(4-{[4-fluoro-2-(trifluoromethyl)phenyl]carbonyl}piperazinyl)prop-2-yn-1-one]	< 100
